Values belong to the compound of their own block, whether it stands above or below them.
Legend:
[1] = logp (HCOOH), physicochemical characterization; conditions: for chromatographic logP: HCOOH (formic acid)
[2] = tested on: Matricaria inodora; test: Pre-emergence herbicidal effect; format: in vivo; conditions: 1280 g/ha, visual assessment after 3 weeks
From the text: (§1) 1. Pre-Emergence Herbicidal Effect and Crop Plant Compatibility Seeds of monocotyledonous and dicotyledonous weed plants and crop plants are placed in wood-fiber pots in sandy loam and covered with soil. The inventive compounds, formulated in the form of wettable powders (WP) or as emulsion concentrates (EC), are then applied to the surface of the covering soil as an aqueous suspension or emulsion at a water application rate of 600 to 800 I/ha (converted) with addition of 0.2% wetting agent. After the treatment, the pots are placed in a greenhouse and kept under good growth conditions for the test plants. The damage to the test plants is assessed visually after a test period of 3 weeks by comparison with untreated controls (herbicidal activity in percent (%): 100% action=the plants have died, 0% action=like control plants). LOLMU: Lolium multiflorum MATIN: Matricaria inodora

[3] = tested on: Stellaria media; test: Pre-emergence herbicidal effect; format: in vivo; conditions: 1280 g/ha, visual assessment after 3 weeks
From the text: as §1, with “STEME: Stellaria media VERPE: Veronica persica” for “LOLMU: Lolium multiflorum MATIN: Matricaria inodora”

[4] = tested on: Veronica persica; test: Pre-emergence herbicidal effect; format: in vivo; conditions: 1280 g/ha, visual assessment after 3 weeks
From the text: as §1, with “STEME: Stellaria media VERPE: Veronica persica” for “LOLMU: Lolium multiflorum MATIN: Matricaria inodora”

[5] = tested on: Viola tricolor; test: Pre-emergence herbicidal effect; format: in vivo; conditions: 1280 g/ha, visual assessment after 3 weeks
From the text: as §1, with “VIOTR: Viola tricolor” for “LOLMU: Lolium multiflorum MATIN: Matricaria inodora”

[6] = tested on: Amaranthus retroflexus; test: Pre-emergence herbicidal effect; format: in vivo; conditions: 1280 g/ha, visual assessment after 3 weeks
From the text: as §1, with “AMARE: Amaranthus retroflexus ECHCG: Echinochloa crus-galli” for “LOLMU: Lolium multiflorum MATIN: Matricaria inodora”

[7] = tested on: Polygonum convolvulus; test: Pre-emergence herbicidal effect; format: in vivo; conditions: 1280 g/ha, visual assessment after 3 weeks
From the text: as §1, with “POLCO: Polygonum convolvulus SETVI: Setaria viridis” for “LOLMU: Lolium multiflorum MATIN: Matricaria inodora”

[8] = tested on: Veronica persica; test: Post-emergence herbicidal effect; format: in vivo; conditions: 1280 g/ha, visual rating after about 3 weeks
Experimental: (§2) STEME: Stellaria media VERPE: Veronica persica 2. Post-Emergence Herbicidal Effect and Crop Plant Compatibility Seeds of monocotyledonous and dicotyledonous weed and crop plants are placed in sandy loam in wood-fiber pots, covered with soil and cultivated in a greenhouse under good growth conditions. 2 to 3 weeks after sowing, the test plants are treated at the one-leaf stage. The compounds according to the invention, formulated in the form of wettable powders (WP) or as emulsion concentrates (EC), are then sprayed as aqueous suspension or emulsion at a water application rate of 600 to 800 I/ha (converted) with the addition of 0.2% of wetting agent onto the green parts of the plants. After the test plants have been kept in the greenhouse under optimum growth conditions for about 3 weeks, the activity of the preparations is rated visually in comparison to untreated controls (herbicidal activity in percent (%): 100% activity=the plants have died, 0% activity=like control plants).

[9] = tested on: Polygonum convolvulus; test: Post-emergence herbicidal effect; format: in vivo; conditions: 1280 g/ha, visual rating after about 3 weeks
Experimental: as §2, with “POLCO: Polygonum convolvulus SETVI: Setaria viridis” for “STEME: Stellaria media VERPE: Veronica persica”

[10] = tested on: Echinochloa crus-galli; test: Pre-emergence herbicidal effect; format: in vivo; conditions: 1280 g/ha, visual assessment after 3 weeks
From the text: as §1, with “AMARE: Amaranthus retroflexus ECHCG: Echinochloa crus-galli” for “LOLMU: Lolium multiflorum MATIN: Matricaria inodora”

[11] = tested on: Amaranthus retroflexus; test: Post-emergence herbicidal effect; format: in vivo; conditions: 1280 g/ha, visual rating after about 3 weeks
Experimental: as §2, with “AMARE: Amaranthus retroflexus ECHCG: Echinochloa crus-galli” for “STEME: Stellaria media VERPE: Veronica persica”

[12] = tested on: Setaria viridis; test: Pre-emergence herbicidal effect; format: in vivo; conditions: 1280 g/ha, visual assessment after 3 weeks
From the text: as §1, with “POLCO: Polygonum convolvulus SETVI: Setaria viridis” for “LOLMU: Lolium multiflorum MATIN: Matricaria inodora”

[13] = tested on: Lolium multiflorum; test: Pre-emergence herbicidal effect; format: in vivo; conditions: 1280 g/ha, visual assessment after 3 weeks
From the text: as §1

[14] = tested on: Abutilon theophrasti; test: Post-emergence herbicidal effect; format: in vivo; conditions: 1280 g/ha, visual rating after about 3 weeks
Experimental: as §2, with “ABUTH: Abutilon theophrasti ALOMY: Alopecurus myosuroides” for “STEME: Stellaria media VERPE: Veronica persica”

[15] = tested on: Alopecurus myosuroides; test: Pre-emergence herbicidal effect; format: in vivo; conditions: 1280 g/ha, visual assessment after 3 weeks
From the text: as §1, with “ABUTH: Abutilon theophrasti ALOMY: Alopecurus myosuroides” for “LOLMU: Lolium multiflorum MATIN: Matricaria inodora”

SMILES: Cc1cc(C)c2c(c1)C(Nc1cnc(S(C)(=O)=O)nc1)CCO2 (racemic) [compound 62]
logp (HCOOH) [1]: wax-like; logp (HCOOH): 4.06; 1H-NMR (CDCl3, 400 MHZ, δ in ppm): 2.10-2.35 (m,

chromatographic logP [1]: 2.8
SMILES: CCc1ccc2c(c1)C(Nc1cnc(C#N)nc1)CCO2 (centres unmarked) [Ex. 64, 5-[(6-Ethyl-3,4-dihydro-2H-chromen-4-yl)amino]pyrimidine-2-carbonitrile]

chromatographic logP [1]: 3.05
melting point: 123.7 °C
SMILES: FC(F)(F)c1ncc(N[C@@H]2CCc3ccccc32)cn1 [Ex. 115, N-[(1R)-2,3-Dihydro-1H-inden-1-yl]-2-(trifluoromethyl)pyrimidine-5-amine]

SMILES: CCc1ccc2c(c1)C(Nc1cnc(S(C)(=O)=O)nc1C#N)CCO2 (racemic) [compound 66]
logp (HCOOH) [1]: wax-like; logp (HCOOH): 2.54; 1H-NMR (CDCl3, 400 MHZ, δ in ppm): 1.15 (t, 3H,
herbicidal activity MATIN [2]: 90%
herbicidal activity STEME [3]: 100%
herbicidal activity VERPE [4]: 100%
herbicidal activity VIOTR [5]: 100%
herbicidal activity AMARE [6]: 100%
herbicidal activity POLCO [7]: 90%

SMILES: CCc1ccc2c(c1)C(Nc1cnc(C(F)(F)F)nc1)CCO2 (racemic) [compound 70]
logp (HCOOH) [1]: wax-like; logp (HCOOH): 3.41; 1H-NMR (CDCl3, 400 MHZ, δ in ppm): 1.15 (t, 3H,

SMILES: Cc1ccc2c(c1)[C@H](Nc1cnc(C#N)nc1)[C@@H](C)C2 [compound 76]
logp (HCOOH) [1]: wax-like; logp (HCOOH): 3.17; 1H-NMR (CDCl3, 400 MHZ, δ in ppm): 1.25 (d, 3H,

SMILES: Cc1ccc2c(c1)[C@H](Nc1cnc(S(C)(=O)=O)nc1C#N)[C@@H](C)C2 [compound 108]
logp (HCOOH) [1]: solid; logp (HCOOH): 3.29; 1H-NMR (CDCl3, 400 MHZ, δ in ppm): 1.25 (d, 3H, CH3);

SMILES: CS(=O)(=O)c1ncc(N[C@@H]2CCCc3ccccc32)c(C(N)=O)n1 [compound 87]
logp (HCOOH) [1]: wax-like; logp (HCOOH): 1.86; 1H-NMR (CDCl3, 400 MHZ, δ in ppm): 1.85 (m, 2H, 2H

SMILES: CS(=O)(=O)c1ncc(N[C@@H]2CCc3ccccc32)cn1 [compound 131]
herbicidal activity MATIN [2]: 100%
herbicidal activity VERPE [8]: 80%
herbicidal activity POLCO [9]: 80%
herbicidal activity STEME [3]: 100%
herbicidal activity VERPE [4]: 100%
herbicidal activity ECHCG [10]: 100%
herbicidal activity AMARE [11]: 80%
herbicidal activity POLCO [7]: 100%
herbicidal activity SETVI [12]: 90%

chromatographic logP [1]: 2.21
SMILES: Cc1ccc2c(c1)[C@H](Nc1cnc(S(C)(=O)=O)nc1C(N)=O)[C@@H](C)C2 [compound 93, 5-{[(1R,2S)-2,6-Dimethyl-2,3-dihydro-1H-inden-1-yl]amino}-2-(methylsulfonyl)pyrimidine-4-carboxamide]
herbicidal activity LOLMU [13]: 90%
herbicidal activity MATIN [2]: 100%
herbicidal activity STEME [3]: 100%
herbicidal activity VERPE [4]: 100%
herbicidal activity VIOTR [5]: 100%
herbicidal activity ABUTH [14]: 80%
herbicidal activity AMARE [6]: 100%
herbicidal activity ECHCG [10]: 100%
herbicidal activity AMARE [11]: 80%
herbicidal activity POLCO [7]: 100%
herbicidal activity SETVI [12]: 90%
herbicidal activity ALOMY [15]: 90%

SMILES: Cc1ccc2c(c1)[C@H](Nc1cnc(S(C)(=O)=O)nc1C(=O)NC1CC1)[C@@H](C)C2 [compound 139]
herbicidal activity LOLMU [13]: 100%
herbicidal activity MATIN [2]: 100%
herbicidal activity STEME [3]: 100%
herbicidal activity VERPE [4]: 100%
herbicidal activity VIOTR [5]: 100%
herbicidal activity AMARE [6]: 100%
herbicidal activity ALOMY [15]: 90%

Source: patent publication US9375002B2, “5-aminopyrimidine derivatives and use thereof for combating undesired plant growth” (BAYER INTELLECTUAL PROPERTY GMBH, priority 2012, dated 2016)
